From the supplement of paper PMC11997997 come the findings set out here.

Bounds are passed on as bounds.

Assay [1] relates to Mycobacterium tuberculosis CDC1551 (intracellular, in murine BMDM). Description: area under intracellular growth-inhibition dose-response curve (AUC (% inhibition x dose, relative)); higher = more potent. The settings on record: duration: 6 days; dose range: 0.13-80 uM, 8 points. The procedure, abridged: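 Primary murine bone marrow-derived macrophages in 384-well opaque plates were infected 24 h after seeding with luciferase-expressing M. tuberculosis CDC1551 at multiplicity of infection 1 for 1 h. They were then treated with an 8-dose, 2.5-fold series (final 80–0.13 μM) for 6 days. Growth was read by Bright-Glo luciferin assay and normalised to a reference drug control and the lowest-concentration wells. The value is the area under the growth-inhibition dose–response curve, calculated in GraphPad Prism.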

Assay [2] deals with murine bone marrow-derived macrophages. Nature of the assay: area under cytotoxicity dose-response curve (AUC (% cytotoxicity x dose, relative)); higher = more cytotoxic. The settings on record: duration: 6 days; dose range: 0.13-80 uM, 8 points. The procedure, abridged:
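Using opaque 384-well plates, primary murine bone marrow-derived macrophages were treated for 6 days at 37 °C in 5% CO2 with an 8-point, 2.5-fold dilution series spanning final concentrations of 80–0.13 μM. After CellTiter-Glo (Promega) luminescence readout of viability, percent cytotoxicity was normalised to vehicle and positive control wells. The reported value is the area under the dose–response curve for cytotoxicity, derived in GraphPad Prism version 10.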

With `C/C(CC(=O)Nc1ccccc1C#N)=N\NC(=O)c1ccncc1`, the “area under intracellular growth-inhibition dose-response curve” value in assay [1] was 229. Further, the “area under cytotoxicity dose-response curve” value in assay [2] was determined as 98.9.

In the case of `C/C(CC(=O)Nc1cccc(C(F)(F)F)c1)=N\NC(=O)c1ccncc1`, the “area under intracellular growth-inhibition dose-response curve” value in assay [1] stood at 212. The “area under cytotoxicity dose-response curve” value in assay [2] was under 0.

As to `CNC(=S)N/C=N/OCc1c(Cl)cccc1Cl`, the “area under intracellular growth-inhibition dose-response curve” value in assay [1] came to 83.8. The “area under cytotoxicity dose-response curve” value in assay [2] is 86.9.

In the case of `O=c1cc(-c2c(F)c(F)c(F)c(F)c2F)oc2ccccc12`, the “area under intracellular growth-inhibition dose-response curve” value in assay [1] was 122. In addition, the “area under cytotoxicity dose-response curve” value in assay [2] worked out at 11.4.

As to `O=C(CSc1nc2ccccc2nc1N1CCOCC1)N1CCN(c2ccccc2)CC1`, the “area under intracellular growth-inhibition dose-response curve” value in assay [1] worked out at 199. Moreover, in assay [2], the “area under cytotoxicity dose-response curve” value is 22.9.

With `O=C(CCC1CCCCC1)NCc1ccccn1`, the “area under intracellular growth-inhibition dose-response curve” value in assay [1] was determined as 222. For the same compound, the “area under cytotoxicity dose-response curve” value in assay [2] amounted to 3.

As for `On1c(-c2ccc(Cl)cc2)nc2ccccc21`, in assay [1], the “area under intracellular growth-inhibition dose-response curve” value was 63.1. The “area under cytotoxicity dose-response curve” value in assay [2] turned out to be 124.

For the compound `CCCCN1CNC(=S)N(c2ccc(C(=O)OCC)cc2)C1`, in assay [1], the “area under intracellular growth-inhibition dose-response curve” value came out at 270. In assay [2], the “area under cytotoxicity dose-response curve” value was under 0.

Take `CC(C)Cn1c([N+](=O)[O-])nc2c1c(=O)[nH]c(=O)n2C`: the “area under intracellular growth-inhibition dose-response curve” value in assay [1] was determined as 5.16. For the same compound, the “area under cytotoxicity dose-response curve” value in assay [2] was 40.1.

`CCCC(C)NC(=O)c1ccc(F)cc1` (stereo not given): the “area under intracellular growth-inhibition dose-response curve” value in assay [1] is 248. Moreover, in assay [2], the “area under cytotoxicity dose-response curve” value came out at 4.45.

Take `CC(=O)/C=C(\C)Nc1ccccc1O`: in assay [1], the “area under intracellular growth-inhibition dose-response curve” value came out at 54.6. For the same compound, the “area under cytotoxicity dose-response curve” value in assay [2] stood at 95.

Consider `CCCN(Cc1nnc(-c2ccccc2Cl)o1)C(=O)c1cc([N+](=O)[O-])cc([N+](=O)[O-])c1`, for which, in assay [1], the “area under intracellular growth-inhibition dose-response curve” value came to 84. For the same compound, the “area under cytotoxicity dose-response curve” value in assay [2] was 38.7.

`Cc1ccc(C)c(N2CCN(CCCNC(=O)Cn3cccc3C(=O)c3ccccc3C)CC2)c1`: the “area under intracellular growth-inhibition dose-response curve” value in assay [1] amounted to 84.4. Besides, the “area under cytotoxicity dose-response curve” value in assay [2] is 3.91.

For the compound `Cc1cc(Cl)ccc1OCCCC(=O)NNC(=O)c1ccncc1`, the “area under intracellular growth-inhibition dose-response curve” value in assay [1] was 271. Also, in assay [2], the “area under cytotoxicity dose-response curve” value was under 0.

Take `CCOc1ccc2oc(C(=O)OCC(=O)N3C(C)CCCC3C)c(C)c2c1` (stereo not given): the “area under intracellular growth-inhibition dose-response curve” value in assay [1] came to 5.04. The “area under cytotoxicity dose-response curve” value in assay [2] worked out at 105.

On to `CC1(C)CC(=O)C=C(Nc2ccc(C(=O)O)c(O)c2)C1`, for which the “area under intracellular growth-inhibition dose-response curve” value in assay [1] amounted to 195. Besides, in assay [2], the “area under cytotoxicity dose-response curve” value was under 0.

Turning to `CC[C@@H](C)[C@@H]1CN([C@@H](CN2CCC[C@H]2CN2C(N)=NC[C@H]2C(C)C)C(C)C)C(=N)N1CCCC1CCCC1`, the “area under intracellular growth-inhibition dose-response curve” value in assay [1] worked out at 191. Further, the “area under cytotoxicity dose-response curve” value in assay [2] came out at 32.4.

With `O=C(NCc1ccco1)c1cc2c(s1)CCCCC2`, the “area under intracellular growth-inhibition dose-response curve” value in assay [1] was 255. The “area under cytotoxicity dose-response curve” value in assay [2] was determined as 42.6.

On to `Nc1nc(F)nc2c1ncn2[C@@H]1O[C@H](CO)[C@@H](O)[C@H]1O`, for which the “area under intracellular growth-inhibition dose-response curve” value in assay [1] is under 0. Further, the “area under cytotoxicity dose-response curve” value in assay [2] was 236.

Regarding `CCOc1ccc(Br)cc1/C=N/NC(=O)c1ccncc1`, the “area under intracellular growth-inhibition dose-response curve” value in assay [1] amounted to 268. For the same compound, in assay [2], the “area under cytotoxicity dose-response curve” value was under 0.

For the compound `CCOC(=O)c1ccccc1OCc1cc(/C=N/NC(=O)c2ccncc2)ccc1OC`, in assay [1], the “area under intracellular growth-inhibition dose-response curve” value came to 269. Moreover, the “area under cytotoxicity dose-response curve” value in assay [2] stood at 20.2.

As for `CC(=O)n1cc(/C=N/NC(N)=S)c2ccccc21`, the “area under intracellular growth-inhibition dose-response curve” value in assay [1] came out at 273. For the same compound, in assay [2], the “area under cytotoxicity dose-response curve” value was under 0.

On to `O=C(Sc1cccc2cccnc12)c1ccc(F)cc1`, for which the “area under intracellular growth-inhibition dose-response curve” value in assay [1] amounted to 110. Besides, the “area under cytotoxicity dose-response curve” value in assay [2] came to 125.

Take `CCN(C(=O)COC(=O)c1nc(Cl)ccc1Cl)c1c(N)n(Cc2ccccc2)c(=O)[nH]c1=O`: the “area under intracellular growth-inhibition dose-response curve” value in assay [1] amounted to 28.6. Further, the “area under cytotoxicity dose-response curve” value in assay [2] stood at 73.

With `Cc1cc2oc(=O)cc(-c3ccccc3)c2c(C)c1-c1ccc(C#N)cc1`, the “area under intracellular growth-inhibition dose-response curve” value in assay [1] is 272. Moreover, the “area under cytotoxicity dose-response curve” value in assay [2] was 110.

On to `CCCc1nnc(NC(=S)Nc2ccccc2)s1`, for which, in assay [1], the “area under intracellular growth-inhibition dose-response curve” value was found to be 213. In addition, in assay [2], the “area under cytotoxicity dose-response curve” value is under 0.

`Cc1ccc(C2=NCCn3c2c2ccc([N+](=O)[O-])cc2[n+]3[O-])cc1`: the “area under intracellular growth-inhibition dose-response curve” value in assay [1] was determined as 20.7. Also, the “area under cytotoxicity dose-response curve” value in assay [2] amounted to 96.8.

As for `CCc1ccc(/C(C)=N/NC(=O)c2ccc(-n3cnnn3)cc2)cc1`, in assay [1], the “area under intracellular growth-inhibition dose-response curve” value is under 0. Further, the “area under cytotoxicity dose-response curve” value in assay [2] came to 24.6.

As for `COc1ccc(/C=N/NC(=O)c2ccncc2)c(OC)c1`, the “area under intracellular growth-inhibition dose-response curve” value in assay [1] was 227. The “area under cytotoxicity dose-response curve” value in assay [2] came to 28.

As to `CCOc1c2c(nc3ccc(Cl)cc13)CCC2`, the “area under intracellular growth-inhibition dose-response curve” value in assay [1] worked out at 157. Moreover, the “area under cytotoxicity dose-response curve” value in assay [2] was determined as 57.1.

For the compound `CSc1ccc(C(=O)C2CCCN(C(=O)c3ccc4c(c3)no[n+]4[O-])C2)cc1` (stereo not given), the “area under intracellular growth-inhibition dose-response curve” value in assay [1] stood at 191. For the same compound, the “area under cytotoxicity dose-response curve” value in assay [2] amounted to 64.7.

For `Cc1nnc(SCC2=C(C(=O)O)N3C(=O)C(NC(=O)C(C)n4nc(C(F)(F)F)cc4C)C3SC2)s1` (stereo not given), in assay [1], the “area under intracellular growth-inhibition dose-response curve” value turned out to be 176. Further, in assay [2], the “area under cytotoxicity dose-response curve” value is 2.61.

As to `O=[N+]([O-])c1ccccc1-c1cc(-c2ccccc2)cc(-c2ccccc2)[n+]1Cc1ccccc1Cl.[O-][Cl+3]([O-])([O-])[O-]`, the “area under intracellular growth-inhibition dose-response curve” value in assay [1] stood at 144. The “area under cytotoxicity dose-response curve” value in assay [2] was under 0.

For `O=C(c1ccc([N+](=O)[O-])o1)N1CCN(c2nc3ccc(F)cc3s2)CC1`, in assay [1], the “area under intracellular growth-inhibition dose-response curve” value amounted to 22.9. Further, the “area under cytotoxicity dose-response curve” value in assay [2] came to 12.7.

On to `COc1ccc(OC)c(/C=N/NC(=O)c2ccncc2)c1`, for which the “area under intracellular growth-inhibition dose-response curve” value in assay [1] amounted to 254. For the same compound, in assay [2], the “area under cytotoxicity dose-response curve” value worked out at 66.9.

`O=C(NC1CCCCC1)c1ccc2c(c1)OCO2`: the “area under intracellular growth-inhibition dose-response curve” value in assay [1] worked out at 125. Further, the “area under cytotoxicity dose-response curve” value in assay [2] stood at 88.5.

Consider `COc1ccc(Cc2nnc(-c3ccccc3)o2)cc1`, for which the “area under intracellular growth-inhibition dose-response curve” value in assay [1] is 243. Also, the “area under cytotoxicity dose-response curve” value in assay [2] turned out to be 28.8.

For the compound `O=C(Cn1nnc(-c2ccc(F)cc2)n1)Nc1cccc(S(=O)(=O)N2CCCC2)c1`, in assay [1], the “area under intracellular growth-inhibition dose-response curve” value is 73.7. Besides, the “area under cytotoxicity dose-response curve” value in assay [2] came to 11.8.

On to `CC(=O)c1c(C)[n+]([O-])c2ccccc2[n+]1[O-]`, for which, in assay [1], the “area under intracellular growth-inhibition dose-response curve” value came to 84.7. Also, in assay [2], the “area under cytotoxicity dose-response curve” value was found to be 17.5.

`Cc1cccc(NC(=O)NC2CCCCCCC2)c1`: the “area under intracellular growth-inhibition dose-response curve” value in assay [1] is 123. In addition, the “area under cytotoxicity dose-response curve” value in assay [2] was 95.3.
